Results from patent US20100189701A1, “METHODS AND COMPOSITIONS TO TREAT ARRHYTHMIAS” (priority 2007, published 2010).

Columns and labels:
hMSCs = assay: Patch clamp of hMSCs expressing SkM1 Na channel; assay type: cell-based, human; conditions: expressed in hMSCs
From the text: Left: An hMSC transfected with SkM1 was held at potentials between −100 mV and −70 mV and pulsed to 0 mV. Since the current induced from −70 mV is > half the magnitude of the current induced from −100 mV the midpoint of inactivation was positive to −70 mV. Right: hMSCs were held at holding potentials between −100 and −55 mV for 1.5 sec and pulsed to 0 mV for 150 msec. The Boltzmann 2-state fit gives a midpoint of −62.4±3.2 mV and a slope factor of −10.3±3.2 mV.
For research on myocardial infarct-induced ventricular tachycardia, a Na channel gene with a more positive inactivation versus voltage relationship than found normally in cardiac myocytes was required. The skeletal muscle Na channel was investigated because of its reported midpoint of inactivation of −68 mV.

[1] = tested on: neonatal rat ventricular myocyte cultures; assay: Conduction velocity in neonatal rat ventricular myocyte cultures on multi-electrode array; assay type: cell-based; conditions: K 5.4 to 10 mM
neonatal myocytes = assay: Action potential upstroke in neonatal myocytes under K depolarization; assay type: cell-based, rat
Protocol: FIG. 49: Effect of K depolarization on action potential upstroke in neonatal myocytes in the absence and presence of SKM1 expression. […] The elevated K reduced the upstroke to 68% of its control value (mean value after elevated K is 56% of control). Bottom) In an SKM1 expressing myocyte the upstroke is better preserved, measuring 83% of its control value in elevated K.
Top) In GFP but not SkM1 cultures there is a significant effect on CV of increasing K from 5.4 to 10 mM.
Action potentials are recorded using a patch electrode in whole cell mode on cells superfused at 35° C. These experiments are conducted on monolayer cultures when studying control conditions or when employing viral expression, which achieves near uniform expression. For studying transfected cells, the culture is resuspended on the day of experiment and cells selected on the basis of GFP fluorescence, with the GFP being part of the channel vector or co-transfected with a separate vector. Extracellular and pipette solutions are as previously employed. The external solution contains (mM): NaCl 140, KCl 5.4, CaCl2 1, MgCl2 1, HEPES 5, glucose 10, adjusted to pH 7.4. The internal solution contains (mM): aspartic acid 130, KOH 146, NaCl10, CaCl2 2, EGTA 5, HEPES10, MgATP 2, adjusted to pH 7.2. […] Parameters recorded are Vmax, MDP, action potential amplitude (AMP) and APD50.

epicardial border zone = assay: Canine infarct epicardial border zone, electrograms and microelectrode study; assay type: in vivo, dog; conditions: 5 d after infarct and injection
[2] = tested on: neonatal myocyte cultures; assay: Optical recording of CV and maximum pacing frequency in neonatal myocyte cultures; assay type: cell-based; conditions: high K (10.4 mM), vs GFP cultures
Protocol: Adenoviral treated neonatal myocyte cultures expressed SkM1 or GFP and were studied in normal and high (10.4 mM) K. Left: The effectiveness of SkM1 expression to maintain high CV persists as pacing frequency increases.
To determine if the gating characteristics of the expressed channel allow this protective effect to persist at higher frequencies, as may occur during reentrant arrhythmias, CV restitution relations in myocyte cultures expressing SkM1 Na channels+GFP and in control cultures (expressing GFP alone) was studied. FIG. 53 illustrates that CV remains greater as frequency increases, both in normal Tyrode's solution and in elevated K solution. Further, in the absence of SkM1, the breakpoint frequency is reduced in high K.

[3] = cited from earlier work

Substance: SkM1: skeletal muscle sodium channel, expressed from gene in hMSCs or myocytes
- midpoint of inactivation (hMSCs): −62.4±3.2 mV
- Slope factor (hMSCs; Boltzmann 2-state fit): −10.3±3.2 mV
- midpoint of inactivation (hMSCs; listed as skeletal muscle Na channel): −62 mV
- midpoint of inactivation (hMSCs; listed as skeletal muscle sodium channel): −62 mV
- effect of membrane depolarization on CV and V′max [1]: significantly reduces CV and V′max of control cells, but not the SkM1 expressing cells
- Vmax (neonatal myocytes; 10 K): > 100 V/s
- action potential upstroke, % of control value (neonatal myocytes; elevated K (10 mM) vs 5.4 mM): 83%
- electrogram at injected epicardial border zone site (epicardial border zone): narrow spike
- Vmax, injected site 1 vs non-injected site 2 (epicardial border zone; equivalent membrane depolarization): nearly twice that of site 2
- break-point frequency (resistance to rhythm instabilities) [2]: higher break-point frequencies
- inactivation midpoint ([3]; as stated in Example 16 group description): −65 mV
- activation midpoint ([3]; as worded): −68 mV
- Slope factor ([3]; steady state inactivation): −5.4 mV
